Values quoted from earlier work, collected in US20080260771A1, “PROSTATE DISORDER(S) PHYTO-NUTRACEUTICAL SYNERGISTIC COMPOSITION” (priority 2006, published 2008).

Key:
[1] = test system: prostate cancer; settings: supranutritional doses of selenium, clinical trials
[2] = test system: human prostate cancer cells; settings: not in normal prostate epithelial cells
[3] = test system: prostate tumor

| Molecule | reduction of prostate cancer incidence [1] | apoptotic death [2] | tumor growth and lung metastases [3] |
| --- | --- | --- | --- |
| [Se] [Selenium] | 50% | induces rapid apoptotic death | – |
| Vitamin E | – | – | significantly suppressed tumor growth |
